Laboratory results published in PubChem BioAssay (NCI).
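Interpolation was linear, between the two tested concentrations surrounding the appropriate level; five concentrations were tested over 48 hours in 96-well plates. At the GI50, growth is halved. TGI: total growth inhibition.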

Experiments:
Assay in all cases: NCI tumour cell line growth inhibition, 48 h
[1] = system: SN12C renal
[2] = system: HCT-15 colon
[3] = system: NCI-H522 lung
[4] = system: EKVX NSCLC
[5] = system: HOP-92 NSCLC
[6] = system: UACC-257 melanoma
[7] = system: SK-MEL-2 melanoma
[8] = system: PC-3 prostate
[9] = system: T-47D breast
[10] = system: K-562 leukemia
[11] = system: HL-60(TB) leukemia
[12] = system: MOLT-4 leukemia
[13] = system: HOP-62 NSCLC
[14] = system: OVCAR-8 ovarian
[15] = system: SK-MEL-28 melanoma
[16] = system: OVCAR-3 ovarian
[17] = system: NCI/ADR-RES ovarian
[18] = system: IGROV1 ovarian
[19] = system: DU-145 prostate
[20] = system: LOX IMVI melanoma
[21] = system: NCI-H226 lung
[22] = system: U251 CNS
[23] = system: SK-MEL-5 melanoma
[24] = system: COLO 205 colon
[25] = system: SK-OV-3 ovarian
[26] = system: ACHN renal
[27] = system: SNB-19 CNS
[28] = system: M14 melanoma
[29] = system: HCC-2998 colon
[30] = system: SF-295 CNS
[31] = system: BT-549 breast
[32] = system: SR leukemia
[33] = system: TK-10 renal
[34] = system: SNB-75 CNS
[35] = system: A498 renal
[36] = system: UACC-62 melanoma
[37] = system: HT29 colon
[38] = system: NCI-H23 lung
[39] = system: RPMI-8226 leukemia
[40] = system: MALME-3M melanoma
[41] = system: HS 578T breast
[42] = system: CCRF-CEM leukemia
[43] = system: OVCAR-5 ovarian
[44] = system: MDA-MB-435
[45] = system: SF-539 CNS
[46] = system: MDA-MB-231 breast
[47] = system: HCT-116 colon
[48] = system: SF-268 CNS
[49] = system: KM12 colon
[50] = system: NCI-H460 lung
[51] = system: MCF7 breast
[52] = system: OVCAR-4 ovarian
[53] = system: UO-31 renal
[54] = system: RXF 393 renal
[55] = system: A549 NSCLC
[56] = system: SW-620 colon
[57] = system: 786-0 renal
[58] = system: CAKI-1 renal

COc1cc(O)c2c(c1)[C@H]1O[C@@H]1C[C@H](O)[C@H](O)C(=O)/C=C\C[C@H](C)OC2=O was tested, and the GI50 [1] was 5.25 µM, the TGI [1] was > 27.7 µM and the GI50 [2] was 1.81 µM. It also gave a TGI [2] of 23.4 µM, a GI50 [3] of 0.599 µM and a TGI [3] of 6.42 µM. For the same compound, the GI50 [4] was 3.88 µM, the TGI [4] was > 30.8 µM and the GI50 [5] was 0.176 µM. For the same compound, the TGI [5] was 2.88 µM, the GI50 [6] was 0.0584 µM and the TGI [6] was 0.525 µM. It also gave a GI50 [7] of 1.68 µM, a TGI [7] of 10.5 µM and a GI50 [8] of 11.5 µM. The TGI [8] was > 33.3 µM, the GI50 [9] was 0.774 µM and the TGI [9] was 18.3 µM. For the same compound, the GI50 [10] was 2.09 µM, the TGI [10] was > 33.3 µM and the GI50 [11] was 0.197 µM. The TGI [11] was > 10.6 µM, the GI50 [12] was 2.65 µM and the TGI [12] was > 33.3 µM. For the same compound, the GI50 [13] was 8.97 µM, the TGI [13] was > 29.7 µM and the GI50 [14] was 6.08 µM. The TGI [14] was > 28.6 µM, the GI50 [15] was 0.0445 µM and the TGI [15] was 2.32 µM. It also gave a GI50 [16] of 2.49 µM, a TGI [16] of 16.5 µM and a GI50 [17] of 8.56 µM. For the same compound, the TGI [17] was > 33.3 µM, the GI50 [18] was 1.27 µM and the TGI [18] was > 33.3 µM. The GI50 [19] was 3.53 µM, the TGI [19] was > 33.3 µM and the GI50 [20] was 1.25 µM. For the same compound, the TGI [20] was > 19.3 µM, the GI50 [21] was 3.71 µM and the TGI [21] was > 27.1 µM. The GI50 [22] was 8.57 µM, the TGI [22] was > 33.3 µM and the GI50 [23] was 1.58 µM. It also gave a TGI [23] of 10.3 µM, a GI50 [24] of 0.0226 µM and a TGI [24] of 4.02 µM. For the same compound, the GI50 [25] was 24 µM, the TGI [25] was > 33.3 µM and the GI50 [26] was 2.14 µM. For the same compound, the TGI [26] was > 33.3 µM, the GI50 [27] was 8.59 µM and the TGI [27] was > 33.3 µM. It also gave a GI50 [28] of 0.0483 µM, a TGI [28] of 6.84 µM and a GI50 [29] of 4.85 µM. The TGI [29] was 19 µM, the GI50 [30] was 9.57 µM and the TGI [30] was > 33.3 µM. It also gave a GI50 [31] of 1.18 µM, a TGI [31] of 10.7 µM and a GI50 [32] of 3.08 µM. The TGI [32] was > 30.6 µM, the GI50 [33] was 1.69 µM and the TGI [33] was 20.3 µM. The GI50 [34] was 6.11 µM, the TGI [34] was > 33.3 µM and the GI50 [35] was 1.93 µM. For the same compound, the TGI [35] was 9.51 µM, the GI50 [36] was 0.114 µM and the TGI [36] was 5.33 µM. The GI50 [37] was 0.0883 µM, the TGI [37] was 13.4 µM and the GI50 [38] was 1.95 µM. The TGI [38] was > 27.3 µM, the GI50 [39] was 1.5 µM and the TGI [39] was 14.5 µM. For the same compound, the GI50 [40] was 0.00553 µM, the TGI [40] was 0.0231 µM and the GI50 [41] was 5.92 µM. The TGI [41] was 27 µM, the GI50 [42] was 1.54 µM and the TGI [42] was > 33.3 µM. The GI50 [43] was 3.98 µM, the TGI [43] was > 33.3 µM and the GI50 [44] was 0.298 µM. The TGI [44] was 7.15 µM, the GI50 [45] was 4.68 µM and the TGI [45] was 12.6 µM. It also gave a GI50 [46] of 2.05 µM, a TGI [46] of 16.2 µM and a GI50 [47] of 0.779 µM. The TGI [47] was > 17.5 µM, the GI50 [48] was 6.54 µM and the TGI [48] was > 28.5 µM. For the same compound, the GI50 [49] was 12.2 µM, the TGI [49] was > 33.3 µM and the GI50 [50] was 4.96 µM. For the same compound, the TGI [50] was > 21.2 µM, the GI50 [51] was 2.09 µM and the TGI [51] was > 33.3 µM. The GI50 [52] was 1.07 µM, the TGI [52] was > 33.3 µM and the GI50 [53] was 0.561 µM. The TGI [53] was > 21.6 µM, the GI50 [54] was 1.56 µM and the TGI [54] was 8.19 µM. For the same compound, the GI50 [55] was 16.7 µM, the TGI [55] was > 33.3 µM and the GI50 [56] was 0.56 µM. For the same compound, the TGI [56] was 6.36 µM, the GI50 [57] was 4.87 µM and the TGI [57] was 27.4 µM.

With CN1CCN(c2ccc(Nc3nc(NCCCNS(=O)(=O)c4cccc5ccccc45)c4sccc4n3)cc2)CC1 the GI50 [1] was 6.48 µM, the TGI [1] was 19.7 µM and the GI50 [2] was 1.78 µM. For the same compound, the TGI [2] was 3.53 µM, the GI50 [3] was 1.81 µM and the TGI [3] was 3.92 µM. The GI50 [4] was 7.21 µM, the TGI [4] was 20.7 µM and the GI50 [5] was 7.45 µM. For the same compound, the TGI [5] was 27.7 µM, the GI50 [6] was 1.83 µM and the TGI [6] was 3.54 µM. It also gave a GI50 [7] of 2.36 µM, a TGI [7] of 5.79 µM and a GI50 [8] of 5.69 µM. The TGI [8] was > 100 µM, the GI50 [9] was 2.76 µM and the TGI [9] was 9 µM. For the same compound, the GI50 [10] was 3.1 µM, the TGI [10] was > 100 µM and the GI50 [11] was 2.06 µM. The TGI [11] was 4.74 µM, the GI50 [12] was 2.93 µM and the TGI [12] was 11.9 µM. The GI50 [13] was 15.3 µM, the TGI [13] was 32.4 µM and the GI50 [14] was 4.44 µM. It also gave a TGI [14] of 23.5 µM, a GI50 [15] of 1.73 µM and a TGI [15] of 3.22 µM. It also gave a GI50 [16] of 3.32 µM, a TGI [16] of 10.5 µM and a GI50 [17] of 5.29 µM. It also gave a TGI [17] of 19.8 µM, a GI50 [18] of 2.92 µM and a TGI [18] of 10.2 µM. For the same compound, the GI50 [19] was 6.23 µM, the TGI [19] was 20.5 µM and the GI50 [20] was 1.66 µM. For the same compound, the TGI [20] was 3.05 µM, the GI50 [21] was 12.2 µM and the TGI [21] was 34.4 µM. It also gave a GI50 [23] of 1.78 µM, a TGI [23] of 3.19 µM and a GI50 [24] of 2.12 µM. The TGI [24] was 4.31 µM, the GI50 [25] was 20.8 µM and the TGI [25] was 39.5 µM. For the same compound, the GI50 [26] was 3.39 µM, the TGI [26] was 10.6 µM and the GI50 [27] was 5.75 µM. It also gave a TGI [27] of 18.3 µM, a GI50 [28] of 1.9 µM and a TGI [28] of 3.48 µM. It also gave a GI50 [29] of 1.97 µM, a TGI [29] of 4.37 µM and a GI50 [30] of 1.86 µM. For the same compound, the TGI [30] was 3.81 µM, the GI50 [31] was 5.23 µM and the TGI [31] was 21.4 µM. It also gave a GI50 [33] of 4.54 µM, a TGI [33] of 16.5 µM and a GI50 [34] of 12.7 µM. The TGI [34] was 25.4 µM, the GI50 [35] was 2.86 µM and the TGI [35] was 9.4 µM. It also gave a GI50 [36] of 1.69 µM, a TGI [36] of 3.13 µM and a GI50 [37] of 2.41 µM. It also gave a TGI [37] of 7.52 µM, a GI50 [38] of 7.35 µM and a TGI [38] of 22.3 µM. For the same compound, the GI50 [40] was 1.79 µM, the TGI [40] was 3.19 µM and the GI50 [58] was 3.85 µM. It also gave a TGI [58] of 14.7 µM, a GI50 [41] of 2.32 µM and a TGI [41] of 7.61 µM. For the same compound, the GI50 [42] was 3.35 µM, the TGI [42] was > 100 µM and the GI50 [43] was 4.51 µM. The TGI [43] was 16.5 µM, the GI50 [44] was 1.76 µM and the TGI [44] was 3.21 µM. The GI50 [45] was 1.72 µM, the TGI [45] was 3.11 µM and the GI50 [46] was 2.08 µM. For the same compound, the TGI [46] was 4.06 µM, the GI50 [47] was 2.27 µM and the TGI [47] was 6.14 µM. The GI50 [48] was 3.43 µM, the TGI [48] was 20.8 µM and the GI50 [49] was 4.67 µM. For the same compound, the TGI [49] was 22.7 µM, the GI50 [50] was 3.44 µM and the TGI [50] was 10.6 µM. It also gave a GI50 [51] of 2.2 µM, a TGI [51] of 5.25 µM and a GI50 [52] of 3.43 µM. The TGI [52] was 13 µM, the GI50 [53] was 2.35 µM and the TGI [53] was 7.81 µM. For the same compound, the GI50 [55] was 3.42 µM, the TGI [55] was 19.9 µM and the GI50 [56] was 2.02 µM. It also gave a TGI [56] of 4.04 µM, a GI50 [57] of 1.78 µM and a TGI [57] of 3.44 µM.
